{
  "source": "patent US11806328B2",
  "about": "“Metabolic therapy for wound healing” (University of South Florida, priority 2013, dated 2023)",
  "key": {"[1]": {"test_system": "Primary human dermal fibroblasts (HDFs)", "assay": "ROS production (DHE cytosolic, MitoSOX Red mitochondrial) in stressed primary human dermal fibroblasts", "format": "cell-based", "conditions": "for decrease of cytosolic ROS production (DHE) / reduction of mitochondrial ROS production (MitoSOX Red): 5 mM BHB 72 hours, then 100 μM tert-butyl-hydrogen peroxide 3 hrs", "description": "Primary human dermal fibroblasts (HDFs, passaged 2-8) from young and aged donors (24 to 88 years) were incubated in the absence or presence of BHB for 72 hours prior to stress with 100 μM tert-buytl-hydrogen peroxide for 3 hours. ROS production was measured fluorescently with dihydroethidium (DHE, cytosolic) and MitoSOX Red (mitochondrial) in triplicate, N=6. In the cytosol, aged HDFs produced 28% (p=<0.001)) more ROS basally compared to their young counterparts. When incubated in BHB for 72 hours, ROS production in the young HDFs decreased by 40% (p=<0.0001) and by 41% (p=<0.0001) in the aged. In the mitochondria, aged HDFs produced 27% (p=<0.0001) more ROS at baseline than the young HDFs, consistent with observations in cytosol. […] As such, ketone supplementation is useful against redox stress and augments wound healing, shifting redox homeostasis in HDFs, especially in the elderly. Primary human dermal fibroblasts (HDFs, passaged 2-8) from young and aged donors (24 to 88 years) were incubated in the absence or presence of 5 mM beta-hydroxybutyrate (BHB) for 72 hours. To simulate a wound environment, the cells were then stressed with 100 μM tert-butyl-hydrogen peroxide for 3 hrs. ROS production was measured fluorescently with dihydroethidium (DHE, cytosolic) and Mitosox Red (mitochondrial) in triplicate, N=6. In the cytosol, seen in FIG. 2(A), aged HDFs produced 25% (p=0.003) more ROS basally compared to their young counterparts. This is consistent with the knowledge that aged cells have less antioxidants to mitigate the ROS production in a stressed environment. When incubated in 5 mM BHB for 72 hours, young HDFs ROS production decreased by 40% (p=<0.0001) and aged ROS production decreased by 41% (p=<0.0001). […] When incubated in BHB, ROS production was reduced in the young by 29% (p<0.0001) and in the aged by 51% (p<0.0001) compared to the controls. […] Significance calculated using one-way ANOVA and t-tests on Prism 6 software."}, "Young and aged HDFs": {"test_system": "Young and aged HDFs", "assay": "scratch migration assay", "format": "cell-based, human", "conditions": "for migrated cells (Dapi staining) versus untreated control: 5 mM BHB 72 hours, 18 hours after scratch", "description": "Young and aged HDFs were grown to confluence in 0.2% FBS 5 mM glucose DMEM media, cells were treated with or without the presence of 5 mM BHB for 72 hours, cells were scratched with 200 uL yellow pipette tip. After 18 hours, migrated cells were counted using Dapi staining."}, "HDFs": {"test_system": "HDFs", "assay": "proliferation of HDFs", "format": "cell-based, human"}},
  "data": [
    {"compound": "CC(O)CC(=O)O", "note": "(stereo not drawn) [BHB, beta-hydroxybutyrate]", "values": [
      {"measurement": "decrease of cytosolic ROS production (DHE)", "setting": "[1]; aged HDFs", "value": 41, "unit": "%"},
      {"measurement": "reduction of mitochondrial ROS production (MitoSOX Red)", "setting": "[1]; aged HDFs", "value": 51, "unit": "%"},
      {"measurement": "decrease of cytosolic ROS production (DHE)", "setting": "[1]; young HDFs", "value": 40, "unit": "%"},
      {"measurement": "reduction of mitochondrial ROS production (MitoSOX Red)", "setting": "[1]; young HDFs", "value": 29, "unit": "%"},
      {"measurement": "cytosolic and mitochondrial ROS production", "setting": "[1]; young and aged primary human dermal fibroblasts, in words", "value": "reduces cytosolic and mitochondrial ROS production"},
      {"measurement": "migrated cells (Dapi staining) versus untreated control", "setting": "Young and aged HDFs; aged HDFs", "value": "migrated significantly more"},
      {"measurement": "migration", "setting": "Young and aged HDFs; both young and aged HDFs, in words", "value": "did increase migration"},
      {"measurement": "migrated cells (Dapi staining) versus untreated control", "setting": "Young and aged HDFs; young HDFs", "value": "migrated significantly more"},
      {"measurement": "proliferation", "setting": "HDFs", "value": "did not significantly change proliferation"}
    ]}
  ]
}
